Assay results: publication PMC3416781, “Functional Characterizations of Chemosensory Proteins of the Alfalfa Plant Bug Adelphocoris lineolatus Indicate Their Involvement in Host Recognition” (PLoS ONE, 2012)
“Also recorded” adds a separate entry of the source. Each block holds one compound with its values, some of them ahead of it.

What was measured:
AlinCSP1 [1] = target: T1, AlinCSP1 (Adelphocoris lineolatus, UniProt J7EJ71); assay: biochemical; format: binding; conditions: for Ki: Figure 7B legend
T1 sequence (J7EJ71 entry or part of it): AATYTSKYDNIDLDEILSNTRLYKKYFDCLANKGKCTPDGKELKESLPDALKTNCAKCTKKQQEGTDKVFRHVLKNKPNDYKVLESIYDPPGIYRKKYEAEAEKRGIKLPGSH
Experimental: (§1) Fluorescence binding assays were performed on an F-380 fluorescence spectrophotometer (Tianjin, China) in a 1 cm light path quartz cuvette. The slit width used for excitation and emission was both 10 nm. The fluorescent probe N-phenyl-1-naphthylamine (1-NPN) was dissolved in methanol with a 1 mM stock solution. 1-NPN was excited at 337 nm and emission spectra were recorded between 390 nm and 530 nm.
(§2) All values reported were obtained from three independent measurements.
(§3) For determining binding constants, the intensity values corresponding to the maximum fluorescence emission were plotted against free ligand concentration. Bound ligand was evaluated from the values of fluorescence intensity assuming the protein was 100% active, with a stoichiometry of 1∶1 protein:ligand at saturation. The curves were linearized using Scatchard Plot.

AlinCSP3 [2] = target: T2, AlinCSP3 (Adelphocoris lineolatus, UniProt E7BLG4); assay: biochemical; format: binding; conditions: for Ki: Figure 7B legend
T2 sequence (E7BLG4 entry or part of it): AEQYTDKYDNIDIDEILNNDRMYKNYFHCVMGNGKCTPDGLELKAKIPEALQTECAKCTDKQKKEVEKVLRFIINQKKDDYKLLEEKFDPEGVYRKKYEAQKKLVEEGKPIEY
Experimental: as §1, §2, §3

AlinCSP2 [3] = target: T3, AlinCSP2 (Adelphocoris lineolatus, UniProt E7BLG5); assay: biochemical; format: binding; conditions: for Ki: Figure 7B legend
T3 sequence (E7BLG5 entry or part of it): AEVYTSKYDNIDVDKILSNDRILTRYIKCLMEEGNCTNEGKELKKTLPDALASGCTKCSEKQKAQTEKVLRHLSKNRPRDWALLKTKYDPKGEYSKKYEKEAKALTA
Experimental: as §1, §2, §3

A. lineolatus antennae = assay: Electroantennogram (EAG) recordings; design: species or system Adelphocoris lineolatus; conditions: normalized to 2-octanone; for EAG response in words: male and female adult antennae, 10% (v/v) in paraffin oil, good ligand = more than 50% of 2-octanone response; for EAG response, male versus female antennae: Student t-test between sexes
Text: Electrophysiological (EAG) recordings from each sex of adult individuals were made using Ag-AgCl glass pipette electrodes filled with 3 M KCl solution [69], [70]. The insects were anaesthetized by chilling, the antenna was amputated at the base and the tip of the antenna was cut off. The excised antenna was mounted between the electrodes by one teardrop of Spectra R360 electrically conductive gel (Syntech, Netherlands). The base of the antenna was connected to the reference electrode, while the terminal of tip-cut off antenna was connected to the recording electrode. An air stimulus controller CS-55 (Syntech, Netherlands) was used for air and chemical stimulants delivery with a constant flow of 10 ml/second flowed continuously over the antenna through the open end of the glass tube, which was positioned 1 cm from the antenna.
Twenty microliters of tested chemicals (100 µl/ml, 10% (v/v) dilution in paraffin oil except the hexadecanoic acid dissolved in hexane with 100 µg/ml) were applied to filter paper strips (1.5 cm×4 cm, Whatman No.1), and the solvent was allowed to evaporate for 30 sec before the paper strip was inserted into the glass Pasteur pipette cartridge (10 cm long, Fisher Scientific, Pittsburgh, Pennsylvania, USA). The chemicals were tested randomly, stimulus duration time was 0.5 second and an interval of at least 30 seconds was taken between stimulations for antennal recovery. Chemical odorants used for the EAG recordings are the same as used in the binding assays. […] The paraffin oil (Fluka, Buchs, Switzerland) was used to dissolve the chemicals and treated as control compound [71]. Each chemical was tested against six individual male and female antennae, and each antenna was tested three times. The signals were passed through a high impedance amplifier (CS-05 model, Syntech, the Netherlands), EAG responses were initially measured in millivolts (peak height of depolarization) and then converted to normalized responses by the Syntech EAG 2000 program (Syntech, the Netherlands). Response to the solvent control was subtracted from all normalized response and the normalized EAG responses were expressed as a percentage to the reference compound response. All results are presented as mean (±SE) normalized EAG responses. EAG responses between male and female individuals were compared with the Student t-test using SAS software.

AlinCSP1-3 = assay: Fluorescence competitive binding assay, statements for the three CSPs together; design: species or system Adelphocoris lineolatus
Experimental: as §1, §2
as §3, with “Plot. Dissociation constants of the competitors were calculated from the corresponding IC50 values, using the equation: KD = [IC50]/(1+[1-NPN]/K1-NPN), where [1-NPN] is the free concentration of 1-NPN and K1-NPN is the dissociation constant of the AlinCSP1-3/1-NPN complex.” for “Plot.”

AlinCSP3 [4] = target: T2, AlinCSP3; assay: Binding of fluorescent probe 1-NPN to AlinCSP3 (titration, Scatchard plot); conditions: 2 µM protein, 1-NPN 2-16 µM, read-out: dissociation constant of the AlinCSP3/1-NPN complex
Experimental: as §1, §2
as §3, with “Plot. Dissociation constants of the competitors were calculated from the corresponding IC50 values, using the equation: KD = [IC50]/(1+[1-NPN]/K1-NPN), where [1-NPN] is the free concentration of 1-NPN and K1-NPN is the dissociation constant of the AlinCSP1-3/1-NPN complex.” for “Plot.”

AlinCSP2 [5] = target: T3, AlinCSP2; assay: Binding of fluorescent probe 1-NPN to AlinCSP2 (titration, Scatchard plot); conditions: 2 µM protein, 1-NPN 2-16 µM, read-out: dissociation constant of the AlinCSP2/1-NPN complex
Experimental: as §1, §2
as §3, with “Plot. Dissociation constants of the competitors were calculated from the corresponding IC50 values, using the equation: KD = [IC50]/(1+[1-NPN]/K1-NPN), where [1-NPN] is the free concentration of 1-NPN and K1-NPN is the dissociation constant of the AlinCSP1-3/1-NPN complex.” for “Plot.”

AlinCSP1 [6] = target: T1, AlinCSP1; assay: Binding of fluorescent probe 1-NPN to AlinCSP1 (titration, Scatchard plot); conditions: 2 µM protein, 1-NPN 2-16 µM, read-out: dissociation constant of the AlinCSP1/1-NPN complex
Experimental: as §1, §2
as §3, with “Plot. Dissociation constants of the competitors were calculated from the corresponding IC50 values, using the equation: KD = [IC50]/(1+[1-NPN]/K1-NPN), where [1-NPN] is the free concentration of 1-NPN and K1-NPN is the dissociation constant of the AlinCSP1-3/1-NPN complex.” for “Plot.”

[7] = u.d. = KD not calculated because IC50>50 µM, read-out: KD (µM) AlinCSP1, given as u.d.
[8] = u.d. = KD not calculated because IC50>50 µM, read-out: KD (µM) AlinCSP3, given as u.d.
[9] = u.d. = KD not calculated because IC50>50 µM, read-out: KD (µM) AlinCSP2, given as u.d.
[10] = 1-NPN and protein at 2 µM, 50 mM Tris-HCl pH 7.4, KD calculated from IC50, mean of three measurements, read-out: KD (µM) AlinCSP1

- Ki (AlinCSP1 [1]): 95.2 µM
- Kd (AlinCSP1 [1]; [7]): > 50 µM
- Ki (AlinCSP3 [2]): 101 µM
- Kd (AlinCSP3 [2]; [8]): > 50 µM
- Ki (AlinCSP2 [3]): 92.5 µM
- Kd (AlinCSP2 [3]; [9]): > 50 µM
SMILES: CCCC(=O)OCC [Ethyl butyrate]
- EAG response in words (A. lineolatus antennae): elicited significant antennal responses from both male and female; also recorded: elicited high EAG responses
- binding to the three CSPs in words (AlinCSP1-3): failed to bind with any of the three CSPs

- Ki (AlinCSP1 [1]): 118 µM
- Kd (AlinCSP1 [1]; [7]): > 50 µM
- Kd (AlinCSP3 [2]; [8]): > 50 µM
- Ki (AlinCSP2 [3]): 137 µM
- Kd (AlinCSP2 [3]; [9]): > 50 µM
- IC50 (AlinCSP1-3; displacement of 1-NPN, all three CSPs): > 50 µM
SMILES: CCCCCCCCCCCCCCCC(=O)O [hexadecanoic acid]
- EAG response in words (A. lineolatus antennae): did not elicit notably EAG responses

SMILES: c1ccc(Nc2cccc3ccccc23)cc1 [1-NPN, N-phenyl-1-naphthylamine]
- Kd (AlinCSP3 [4]): 4.45 µM
- Kd (AlinCSP2 [5]): 1.92 µM
- Kd (AlinCSP1 [6]): 1.83 µM

- Kd (AlinCSP1 [1]; [10]): 42.9 ± 2.89 µM
- Kd (AlinCSP3 [2]; 1-NPN and protein at 2 µM, 50 mM Tris-HCl pH 7.4, KD calculated from IC50, mean of three measurements, read-out: KD (µM) AlinCSP3): 41.2 ± 2.56 µM
- Kd (AlinCSP2 [3]; [9]): > 50 µM
SMILES: CCCCCC(C)=O [2-Heptanone]
- EAG response, male versus female antennae (A. lineolatus antennae): significantly higher EAG responses from female antennae than from male antennae

- Kd (AlinCSP1 [1]; [10]): 38.4 ± 1.54 µM
- Kd (AlinCSP3 [2]; [8]): > 50 µM
- Kd (AlinCSP2 [3]; 1-NPN and protein at 2 µM, 50 mM Tris-HCl pH 7.4, KD calculated from IC50, mean of three measurements, read-out: KD (µM) AlinCSP2): 39.6 ± 2.36 µM
SMILES: CCCCCCCCCCC [Undecane]
- EAG response, male versus female antennae (A. lineolatus antennae): significantly higher EAG responses from male antennae than from female antennae

- Kd (AlinCSP1 [1]; [7]): > 50 µM
- Ki (AlinCSP3 [2]): 148 µM
- Kd (AlinCSP3 [2]; [8]): > 50 µM
- Ki (AlinCSP2 [3]): 113 µM
- Kd (AlinCSP2 [3]; [9]): > 50 µM
SMILES: CCC/C=C/COC(=O)CCC [(E)-2-Hexenyl butyrate]
- EAG response in words (A. lineolatus antennae): elicited significant antennal responses from both male and female; also recorded: elicited high EAG responses
- binding to the three CSPs in words (AlinCSP1-3): failed to bind with any of the three CSPs

SMILES: C=C1CC/C=C(\C)CC[C@@H]2[C@@H]1CC2(C)C [β-Caryophyllene]
- Kd (AlinCSP1 [1]; KD (µM) AlinCSP1, 1-NPN and protein at 2 µM, 50 mM Tris-HCl pH 7.4, KD calculated from IC50, mean of three measurements): 9.22 ± 1.08 µM
- Kd (AlinCSP3 [2]; KD (µM) AlinCSP3, 1-NPN and protein at 2 µM, 50 mM Tris-HCl pH 7.4, KD calculated from IC50, mean of three measurements): 12.3 ± 2.42 µM
- binding to AlinCSP2 in words (AlinCSP2 [3]): failed to bind with AlinCSP2
- Kd (AlinCSP2 [3]; KD (µM) AlinCSP2, given as u.d., u.d. = KD not calculated because IC50>50 µM): > 50 µM
- EAG response in words (A. lineolatus antennae): no notable EAG response
